One experiment relates to β2-adrenergic receptors. As to the kind of experiment: β2-adrenergic receptor binding.
Another experiment has as its system serotonergic receptors. As to the kind of experiment: serotonergic receptor binding.
The subject of experiment [1] is α-aminobuteric acid receptors. As to the kind of experiment: α-aminobuteric acid receptor binding.
Experiment [2] concerns anesthetized-vagotomized normotensive rats. Kind of experiment: hemodynamics in anesthetized-vagotomized normotensive rats. The class given is in vivo, rat. As to conditions: IV 3 to 300 mg/kg. As for the experimental part:
In this procedure the (R)-N-(2,3-dihydro-1H-inden-1-yl)adenosine (B) is administered intravenously (IV) at 3 to 300 mg/kg in anesthetized-vagotomized normotensive rats.

Experiment [3] has as its system isolated-Langendorff perfused rat hearts. As to the kind of experiment: isolated-Langendorff perfused rat hearts. As to conditions: 10^-8 -3×10^-6 M.
The test system of experiment [4] is anesthetized normotensive dogs. As to the kind of experiment: hemodynamics in anesthetized normotensive dogs. The experiment is classed as in vivo, dog. To be noted: IV. As to the method: Such administration is by a method essentially described as follows:
Mongrel dogs of either sex are anesthetized with sodium pentobarbital (30 mg/kg IV) and mechanically ventilated with room air. The left and right femoral veins are cannulated for injection of test compound and maintenance anesthesia (3.5 mg/kg/hr), respectively. Cardiac output is measured by a thermodilution catheter positioned in the pulmonary artery. Left ventricular contractility (dP/dt) is measured by a Millar Mikro-Tip catheter pressure transducer positioned in the left ventricular cavity via the left carotid artery, heart rate, and lead II electrocardiogram are recorded continuously. Each animal is allowed 30 minutes to stabilize and hemodynamic control pressures, cardiac output, and electrocardiographic measurements are recorded. Compounds are dissolved in saline if possible and pH adjusted. If another solvent is required, vehicle control experiments are performed. Test compounds are administered as rising bolus doses usually starting at 0.1 midtherapeutic and increasing in half log doses to 30 X midtherapeutic. All cardiovascular measurements are repeated after each dose.
Agent induced effects on any of the cardiovascular measurements are recorded.

Another experiment relates to β1-adrenergic receptors. As to the kind of experiment: β1-adrenergic receptor binding.
The next experiment has as its system α2-adrenergic receptors. Kind of experiment: α2-adrenergic receptor binding.
Another experiment has as its system α1-adrenergic receptors. Kind of experiment: α1-adrenergic receptor binding.
A further experiment concerns dopaminergic receptors. Kind of experiment: dopaminergic receptor binding.
Experiment [5] relates to anesthetized dog with propranolol-induced myocardial depression. Kind of experiment: propranolol-induced acute heart failure in the anesthetized dog. The experiment is classed as in vivo. As to conditions: B 6 μg/kg/min infusion, A 0.01 to 3.0 mg/kg IV bolus.
Procedure: CONT indicates the control before propanolol induced cardiac depression, DEP indicates a stable propanolol depression, and TD indicates administration of the initial test drug, either saline or (R)-N-(2,3-dihydro-1H-inden-1-yl)adenosine (B).
Adult mongrel dogs of either sex are anesthetized with sodium pentobarbital (32 mg/kg) IV, trachea intubated, and ventilated artificially. Anesthesia is maintained by a continuous infusion of sodium pentobarbital (3.0 mg/kg/hr) through a femoral vein cannula. Three additional venous cannulae are used for (1) propranolol infusion, (2) (R)-N-(2,3-dihydro-1H-inden-1-yl)adenosine or saline infusion and (3) bolus injections of either 4,5-dihydro-6-[4-(1H-imidazol-1-yl)phenyl]-3(2H)pyridazinone, hydrochloride salt or saline. Systemic arterial blood pressure, left ventricular contractility (dP/dt), and heart rate are recorded continuously. Cardiac output, measured by thermodilution, is recorded before myocardial depression, when stable myocardial depression is achieved (approximately 30 minutes), and ten minutes following each bolus dose. Following surgical preparation, 30 minutes are allowed for hemodynamic stabilization prior to induction of the myocardial depression. […]
In a further experiment the target is T1, A1 adenosine receptor (Rattus norvegicus, UniProt P25099).
T1 construct: isolated rat brain membranes; from tissue; host or cells: rat brain membranes
T1 sequence (P25099 1-326): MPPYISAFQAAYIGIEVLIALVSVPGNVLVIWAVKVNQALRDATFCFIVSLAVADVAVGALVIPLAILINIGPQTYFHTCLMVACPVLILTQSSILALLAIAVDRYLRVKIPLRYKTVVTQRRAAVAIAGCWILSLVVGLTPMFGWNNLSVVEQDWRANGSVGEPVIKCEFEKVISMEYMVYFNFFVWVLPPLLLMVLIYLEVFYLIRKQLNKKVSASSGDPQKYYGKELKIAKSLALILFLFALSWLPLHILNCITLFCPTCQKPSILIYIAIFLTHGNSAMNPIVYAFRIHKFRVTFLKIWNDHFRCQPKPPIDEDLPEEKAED
As to the kind of experiment: A1 adenosine receptor binding, isolated rat brain membranes.

The next experiment has as its system muscarinic receptors. Kind of experiment: muscarinic receptor binding.
Where [6] appears, read: combination compared with A alone at comparable doses.

The term IC50 denotes the point on the concentration scale where inhibition reaches its midpoint.

Regarding `OC[C@H]1O[C@@H](n2cnc3c(N[C@@H]4CCc5ccccc54)ncnc32)[C@H](O)[C@@H]1O` [B, (R)-N-(2,3-dihydro-1H-inden-1-yl)adenosine], the “binding to β2-adrenergic receptors” value in the experiment on β2-adrenergic receptors was “does not significantly bind”. In addition, the “binding to serotonergic receptors” value with serotonergic receptors is given as “does not significantly bind”. Moreover, in experiment [1], the “binding to α-aminobuteric acid receptors” value is “does not significantly bind”. For the same compound, in experiment [2], the heart rate result is recorded as “dose-related decreases” and the “mean arterial blood pressure” value is recorded as “dose-related decreases”. Also, in [3], the heart rate entry is on record as “decreases”. The coronary flow result in experiment [3] (isolated perfused rat heart) is listed as “Concentration-dependent increases”. In addition, in experiment [4], the “calculated total peripheral resistance” value is “dose-related decreases”, the heart rate entry is given as “dose-related decreases” and the “mean arterial blood pressure” value is listed as “dose-related decreases”. The “binding to β1-adrenergic receptors” value in the experiment on β1-adrenergic receptors is given as “does not significantly bind”. In the experiment on α2-adrenergic receptors, the “binding to α2-adrenergic receptors” value is reported as “does not significantly bind”. Also, the “binding to α1-adrenergic receptors” value in the experiment on α1-adrenergic receptors is recorded as “does not significantly bind”. Further, the “binding to dopaminergic receptors” value in the experiment on dopaminergic receptors was “does not significantly bind”. Also, the “pressure volume relationship of the left ventricle (LVEDP vs stroke volume)” value in experiment [5] was “did not increase dP/dt, cardiac output, or affect the pressure volume relationship”. In addition, in [5] (setting [6]), the cardiac output entry is “did not increase” and the “myocardial contractility (dP/dt of left ventricular pressure)” value is reported as “did not increase”. Besides, the IC50 at A1 adenosine receptor is 0.03 µM. In the experiment on muscarinic receptors, the “binding to muscarinic receptors” value is “does not significantly bind”.

Source of the values: US4693996A, “Method of treating heart failure and medicaments therefor” (Warner-Lambert Company, priority 1985, dated 1987).
